Source: patent US20110039763A1, “TARGETED ANTIMICROBIAL MOIETIES” (C3 JIAN, INC., priority 2009, published 2011)
“Also recorded” adds a separate entry of the source.

What was measured:
microorganisms [1] = assay: Targeting peptide binding to target microorganisms (Tables 3, 10, 12); settings: microorganism(s) the targeting peptide binds; binding in aqueous buffers varied with peptide solubility, preferably 1x PBS
From the text: In certain embodiments, the targeting moiety comprises one or more targeting peptides that bind particular bacteria, fungi, and/or yeasts, and/or algae, and/or viruses and/or that bind particular groups of bacteria, and/or groups of fungi, and/or groups of yeasts, and/or groups of algae.
In certain embodiments the targeting peptides include peptides comprising or consisting of one or more of the amino acid sequences shown in Table 3 (SEQ ID NOs:13-1566). In various embodiments the peptides include peptides comprising or consisting of the retro, inverso, retro-inverso, and/or beta form of one or more of the amino acid sequences shown in Table 3. Also contemplated are circular permutations of these sequences as well as peptides comprising or consisting of the retro, inverso, retro-inverso, and/or beta form of such circular permutations.
In certain embodiments the targeting peptide can comprise one or more domains capable of binding, specifically binding, or preferentially binding to a microorganism, e.g., a target microbial organism (see, e.g., Table 3). In certain embodiment, the targeting peptide be identified via screening peptide libraries. For example, a phage display peptide library can be screened against a target microbial organism or a desired antigen or epitope thereof. Any peptide identified through such screening can be used as a targeting peptide for the target microbial organism.

microorganisms [2] = assay: Morphology, biofilm and growth disrupting peptides (Table 5); assay type: cell-based; design: key: A: Peptide aggregates; B: Less hyphal formation; Clumps; Diffuse clumps and small polyps; F: Diffuse growth; H: Thin; I: Growth inhibition; Microcolony formation; Rippled; Small polyps; Thick; W: Halo formation on top, microlonies on bottom
From the text: In certain embodiments peptides that induce alterations in phenotype or other biological activities can also be used as antimicrobial effector moieties.

## PF-412 (TSGWLGQLEQ; Peptide with targeting and/or antimicrobial activity)
Microorganisms [1]
  Target(s): M. luteus; also recorded: E. coli; also recorded: C. albicans; also recorded: C. jeikeium; also recorded: C. jejuni

## PF-293 (YDPLK; Peptide with targeting and/or antimicrobial activity)
Microorganisms [2]; S. epidermidis
  Organism, effect: S. epidermidis: S. epidermidis (C)

## PF-250 (SEDIFGRLANEKANGLEELRKIRLKQ; Peptide with targeting and/or antimicrobial activity)
Microorganisms [2]; M. luteus
  Organism, effect: M. luteus: M. luteus (T)

## PF-455 (MARNDDDIKKIKGTLGQSPEVYGERKLPYT; Peptide with targeting and/or antimicrobial activity)
Microorganisms [2]; S. pneumoniae
  Organism, effect: S. pneumoniae (A)

## PF-059 (TITLKAGIERALHEEVPGVIEVEQVF; Peptide with targeting and/or antimicrobial activity)
Microorganisms [2]; C. jejuni
  Organism, effect: C. jejuni: C. jejuni (C)

## PF-624 (VFLLDSYCFVKINL; Peptide with targeting and/or antimicrobial activity)
Microorganisms [2]; E. coli
  Organism, effect: E. coli (C)
Microorganisms [2]; M. luteus
  Organism, effect: M. luteus (C)
Microorganisms [2]; MRSA
  Organism, effect: MRSA (C)
Microorganisms [2]; P. mirabilis
  Organism, effect: P. mirabilis (C)
Microorganisms [2]; S. epidermidis
  Organism, effect: S. epidermidis (D)
Microorganisms [2]; S. mutans
  Organism, effect: S. mutans (D)
Microorganisms [2]; S. pneumoniae
  Organism, effect: S. pneumoniae (D)

## PF-535 (NIKTRKRALKIIKQHQRSK; Peptide with targeting and/or antimicrobial activity)
Microorganisms [2]; P. aeruginosa
  Organism, effect: P. aeruginosa (H)
Microorganisms [2]; S. pneumoniae
  Organism, effect: S. pneumoniae (H)

## PF-541 (RRNLNSPNIKTRKRALKIIKQHQRSK; Peptide with targeting and/or antimicrobial activity)
Microorganisms [2]; E. coli
  Organism, effect: E. coli (H)
Microorganisms [2]; S. pneumoniae
  Organism, effect: S. pneumoniae (H)

## PF-274 (SIQEAEKIIKNDPFYIHDVADYDFMWFEPSKSLEEIKEFV; Peptide with targeting and/or antimicrobial activity)
Microorganisms [2]; M. luteus
  Organism, effect: M. luteus: M. luteus (M)

## PF-C293 (IIIILPKIYLVCKTV; Peptide with targeting and/or antimicrobial activity)
Microorganisms [2]; F. nucleatum
  Organism, effect: F. nucleatum (T)
Microorganisms [2]; P. gingivalis
  Organism, effect: P. gingivalis (R)
Microorganisms [2]; S. mutans
  Organism, effect: S. mutans (F)

## PF-220 (VDPADDGTRHIRPEDGDPIEIDE; Peptide with targeting and/or antimicrobial activity)
Microorganisms [2]; S. pneumoniae
  Organism, effect: S. pneumoniae: S. pneumoniae (H)

## PF-485 (KNSMSRSIALID; Peptide with targeting and/or antimicrobial activity)
Microorganisms [2]; S. pneumoniae
  Organism, effect: S. pneumoniae (A)

## PF-618 (KLNTLNKKDNPSLNDQDKNAVLNLLALAK; Peptide with targeting and/or antimicrobial activity)
Microorganisms [2]; E. faecalis
  Organism, effect: E. faecalis (H)
Microorganisms [2]; S. pneumoniae
  Organism, effect: S. pneumoniae (I)

## PF-019 (NDTNK; Peptide with targeting and/or antimicrobial activity)
Microorganisms [2]; MRSA
  Organism, effect: MRSA: MRSA (M)

## PF-032 (RIVVPAHQSNMASTPNLSITP; Peptide with targeting and/or antimicrobial activity)
Microorganisms [2]
  Organism, effect: C. jeikeium: C. jeikeium (C)
Microorganisms [2]; S. epidermidis
  Organism, effect: S. epidermidis: S. epidermidis (S)

## PF-415 (MIDVTIGQKSKTGAFNASYSICFSGENFSF; Peptide with targeting and/or antimicrobial activity)
Microorganisms [2]; S. pneumoniae
  Organism, effect: S. pneumoniae: S. pneumoniae (D)

## PF-670 (chain 1 TVIVAPMHSGV; chain 2 TVIVAPMHSGV; Peptide with targeting and/or antimicrobial activity)
Microorganisms [2]; B. subtilis
  Organism, effect: B. subtilis (H)
Microorganisms [2]; S. pneumoniae
  Organism, effect: S. pneumoniae (H)

## PF-335 (AAYPIEDWSDWYEDFFIMLSNI; Peptide with targeting and/or antimicrobial activity)
Microorganisms [2]; B. subtilis
  Organism, effect: B. subtilis: B. subtilis (C)
Microorganisms [2]; S. epidermidis
  Organism, effect: S. epidermidis: S. epidermidis (C)

## PF-449 (MPTTKSKQKGWTNTKKASNTQ; Peptide with targeting and/or antimicrobial activity)
Microorganisms [2]; S. pneumoniae
  Organism, effect: S. pneumoniae (H)

## PF-532 (KFIYKYKLSFIIYKILIQTLTMELNK; Peptide with targeting and/or antimicrobial activity)
Microorganisms [2]; E. coli
  Organism, effect: E. coli (C)
Microorganisms [2]; E. faecalis
  Organism, effect: E. faecalis (C)
Microorganisms [2]; MRSA
  Organism, effect: MRSA (C)
Microorganisms [2]; S. pneumoniae
  Organism, effect: S. pneumoniae (C)

## PF-199 (FPAFSFGAIAGSVSVAR; Peptide with targeting and/or antimicrobial activity)
Microorganisms [2]
  Organism, effect: C. jeikeium: C. jeikeium (R)
Microorganisms [2]; M. luteus
  Organism, effect: M. luteus: M. luteus (A)
Microorganisms [2]; S. epidermidis
  Organism, effect: S. epidermidis: S. epidermidis (C)
